Data on nine compounds can be found in patent US12343676B2, “Process and system for capture of carbon dioxide” (COMMONWEALTH SCIENTIFIC AND INDUSTRIAL RESEARCH ORGANISATION, priority 2017, dated 2025).

Usually pKa stands for the pH at which an ionisable group is half protonated.

The conditions of series [1]: cited from earlier work.
Series [2] in a line: Carbamate stability constants with enthalpies and entropies, 15.0-45.0 °C. The series is classed as physicochemical.
Series [3] is described as follows: Protonation constants with enthalpies and entropies, 15.0-45.0 °C. The series is classed as physicochemical. The note with it: for ΔH° of log K carb Prot 2 / ΔH° of log K prot / ΔS° of log K carb Prot 2 / ΔS° of log K prot: 15.0-45.0 °C. From the text:
From the data in Table 2 the first protonation constants of AMPy, log K prot, are similar to MEA and BZA and fall within a suitable range for CO2 capture processes. Importantly, the large and desired protonation enthalpy (ΔH°) observed for BZA is largely maintained in the AMPy derivatives (−53.9 to −46.6).

Series [4] in a line: Bubble reactor precipitation propensity with pure CO2. The series is classed as physicochemical. To be noted: pure CO2 at atmospheric pressure, ambient temperature, aqueous. Here is the method: As part of the absorbent screening process concentrated aqueous 3-AMPy was evaluated for its potential to form solid precipitates in the presence of CO2 at high concentrations. […] A simple bubble reactor was utilised to determine the precipitation propensity while passing a pure CO2 gas stream at atmospheric pressure into a concentrated 3-AMPy solution held at ambient temperature. A concentration of 80 wt % 3-AMPy was achieved before precipitation of the carbamate salt was observed. While a precipitate was observed, it is unlikely this will occur in the pilot plant given the aggressive conditions employed in the simple lab based study. Furthermore, similar precipitation behaviour has been observed for other common aqueous amines in highly concentrated solutions but which are operated successfully in pilot plants.

A short description of series [5]: pKa at 25 °C. Format: physicochemical.
[6] abbreviates: water, Table 7, (aminomethyl)pyridines, read-out: pKa of conjugate acid at 25° C. in water.

Structures are written as SMILES. Where two headings read alike, the source gives them in different places.

Consider `OCC1CCNCC1` [4-piperidinylmethanol], for which the “pKa at 25° C.” value in series [1] (Table 8) and in series [1] was 10.6 throughout.

For the compound `NCCO` [MEA, monoethanolamine, reference compound], the “ΔH° of log K carb” value in series [2] (15.0-45.0 °C) is −18 kJ · mol^−1. In addition, the “ΔS° of log K carb” value in series [2] (15.0-45.0 °C) is given as −35 J · mol^−1 · K^−1. Further, the “log K carb (carbamate stability constant)” value in series [2] (15 °C) is 1.85; in series [2] (25 °C) it was 1.76; in series [2] (35 °C), 1.66; in series [2] (45 °C), 1.55.

Turning to `OCCC1CCCCN1` (stereo not shown) [2-piperidinylethanol], the “pKa at 25° C.” value in series [1] (Table 8) and in series [1] was 10.5 in each case.

For the compound `NCc1cccnc1` [3-AMPy, 3-(aminomethyl)pyridine], in series [3], the “ΔH° of log K carb Prot 2” value was −14.5 kJ · mol^−1. The “ΔH° of log K prot” value in series [3] is −50.6 kJ · mol^−1. For the same compound, in series [3], the “ΔS° of log K carb Prot 2” value was −15.2 J · mol^−1 · K^−1. Also, the “ΔS° of log K prot” value in series [3] is on record as 0.8 J · mol^−1 · K^−1. Moreover, the “log K carb Prot 2” value in series [3] (15 °C) worked out at 3.42; in series [3] (25 °C), 3.34; in series [3] (35 °C), 3.25; in series [3] (45 °C), 3.17. Besides, the “log K prot” value in series [3] (15 °C) is recorded as 9.11; in series [3] (25 °C) it was 8.83; in series [3] (35 °C), 8.51; in series [3] (45 °C), 8.26. Besides, the “ΔH° of log K carb” value in series [2] (15.0-45.0 °C) is −36.83 kJ · mol^−1. Moreover, in series [2] (15.0-45.0 °C), the “ΔS° of log K carb” value came to 82.97 J · mol^−1 · K^−1. Moreover, the “log K carb (carbamate stability constant)” value is listed as 2.34 in series [2] (15 °C), 2.11 in series [2] (25 °C), 1.93 in series [2] (35 °C) and 1.70 in series [2] (45 °C). Moreover, the “concentration achieved before precipitation of the carbamate salt” value in series [4] worked out at 80 wt %. For the same compound, the pKa in series [5] (25 °C, read-out: pKa) was 8.6; in series [5] (setting [6]), 8.8.

As for `NCc1ccccn1` [2-AMPy, 2-(aminomethyl)pyridine], in series [3], the “ΔH° of log K carb Prot 2” value is on record as −17.9 kJ · mol^−1, the “ΔH° of log K prot” value is −46.6 kJ · mol^−1, the “ΔS° of log K carb Prot 2” value is reported as 24.5 J · mol^−1 · K^−1 and the “ΔS° of log K prot” value is −10.1 J · mol^−1 · K^−1. Further, in series [3] (15 °C), the “log K carb Prot 2” value was found to be 1.96 and the “log K prot” value was determined as 8.98. For the same compound, in series [3] (25 °C), the “log K carb Prot 2” value was determined as 1.86 and the “log K prot” value was found to be 8.68. Moreover, the “log K prot” value in series [3] (35 °C) was 8.41. Also, in series [3] (45 °C), the “log K carb Prot 2” value is 1.75 and the “log K prot” value was found to be 8.19. The pKa in series [5] (25 °C, read-out: pKa) is 8.6. Besides, the pKa in series [5] (setting [6]) came to 8.7.

Consider `Nc1cccnc1` [3-Aminopyridine, reference compound], for which the “pKa of conjugate acid at 25° C. in water” value in series [1] (Table 7, aniline and aminopyridines) is reported as 6.3.

As for `OCC1CCCCN1` (stereo not shown) [2-piperidinylmethanol], the “pKa at 25° C.” value in series [1] (Table 8) and in series [1] was 10.1 in each case.

Turning to `NCc1ccccc1` [BZA, benzylamine, reference compound], in series [3], the “ΔH° of log K prot” value was −59.5 kJ · mol^−1. The “ΔS° of log K prot” value in series [3] worked out at 20 J · mol^−1 · K^−1. Also, the “log K prot” value in series [3] (15 °C) is 9.77; in series [3] (25 °C), 9.43; in series [3] (35 °C), 8.95; in series [3] (45 °C), 8.61. Also, the “ΔH° of log K carb” value in series [2] (15.0-45.0 °C) was −36 kJ · mol^−1. Also, the “ΔS° of log K carb” value in series [2] (15.0-45.0 °C) is reported as −82 J · mol^−1 · K^−1. Besides, the “log K carb (carbamate stability constant)” value in series [2] (15 °C) stood at 2.20; in series [2] (25 °C), 2.01; in series [2] (35 °C), 1.81; in series [2] (45 °C) it was 1.58.

As for `NCc1ccncc1` [4-AMPy, 4-(aminomethyl)pyridine], in series [3], the “ΔH° of log K carb Prot 2” value is listed as −25.5 kJ · mol^−1, the “ΔH° of log K prot” value was −53.9 kJ · mol^−1, the “ΔS° of log K carb Prot 2” value is 15.3 J · mol^−1 · K^−1 and the “ΔS° of log K prot” value was determined as 19.6 J · mol^−1 · K^−1. In series [3] (15 °C), the “log K carb Prot 2” value is 3.84 and the “log K prot” value is 8.77. Besides, in series [3] (25 °C), the “log K carb Prot 2” value was 3.65 and the “log K prot” value is given as 8.43. In addition, in series [3] (35 °C), the “log K carb Prot 2” value turned out to be 3.48 and the “log K prot” value was 8.08. Further, in series [3] (45 °C), the “log K carb Prot 2” value is recorded as 3.41 and the “log K prot” value came to 7.86. In series [2] (15.0-45.0 °C), the “ΔH° of log K carb” value was −30.05 kJ · mol^−1, the “ΔH° of log K carb Prot” value is on record as −38.08 kJ · mol^−1, the “ΔS° of log K carb” value is −58.97 J · mol^−1 · K^−1 and the “ΔS° of log K carb Prot” value was 4.91 J · mol^−1 · K^−1. In series [2] (15 °C), the “log K carb (carbamate stability constant)” value is recorded as 2.35 and the “log K carb Prot” value is on record as 7.15. Also, in series [2] (25 °C), the “log K carb (carbamate stability constant)” value was 2.22 and the “log K carb Prot” value was 6.95. In series [2] (35 °C), the “log K carb (carbamate stability constant)” value was 2.02 and the “log K carb Prot” value was found to be 6.69. For the same compound, in series [2] (45 °C), the “log K carb (carbamate stability constant)” value came out at 1.84 and the “log K carb Prot” value is recorded as 6.52. The pKa in series [5] (25 °C, read-out: pKa) turned out to be 8.6. Further, the pKa in series [5] (setting [6]) was determined as 8.4.
